Reference: PubChem BioAssay (NCI)
“And” between values parts separate entries of the source, which are not always exact repeats. Equal entries are not always repeated.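 Tested at 5 concentrations; 48 h exposure; 96-well plates; endpoints linearly interpolated, else capped at highest concentration. Here, GI50 denotes the concentration required for 50% inhibition of growth. At the TGI there is no net growth.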

Experiments:
Test in all cases: inhibition of tumour cell growth, NCI panel, 48 h
A549 NSCLC = system: A549 NSCLC
BT-549 breast = system: BT-549 breast
CCRF-CEM leukemia = system: CCRF-CEM leukemia
HCT-15 colon = system: HCT-15 colon
KM12 colon = system: KM12 colon
LOX IMVI melanoma = system: LOX IMVI melanoma
M14 melanoma = system: M14 melanoma
OVCAR-3 ovarian = system: OVCAR-3 ovarian
TK-10 renal = system: TK-10 renal
UO-31 renal = system: UO-31 renal

Row | Compound | GI50 (A549 NSCLC) | TGI (A549 NSCLC) | GI50 (BT-549 breast) | TGI (BT-549 breast) | GI50 (CCRF-CEM leukemia) | TGI (CCRF-CEM leukemia) | GI50 (HCT-15 colon) | TGI (HCT-15 colon) | GI50 (KM12 colon) | TGI (KM12 colon) | GI50 (LOX IMVI melanoma) | TGI (LOX IMVI melanoma) | GI50 (M14 melanoma) | TGI (M14 melanoma) | GI50 (OVCAR-3 ovarian) | TGI (OVCAR-3 ovarian) | GI50 (TK-10 renal) | TGI (TK-10 renal) | GI50 (UO-31 renal) | TGI (UO-31 renal)
1 | CC1=C[C@H]2c3c(c(O)c(O)c4oc5ccccc5c(=O)c34)[C@H](c3cc(O)c(O)c4oc5ccccc5c(=O)c34)[C@H]2C(C)(C)C1 | 0.276 µM | 4.91 µM | 1.92 µM | 6.69 µM | 0.609 µM | > 100 µM | 0.909 µM | 12.9 µM | 1.07 µM | 9.53 µM | 0.451 µM | 1.76 µM | 1.36 µM | 5.66 µM | 0.426 µM | 10.5 µM | 2.19 µM | 15.3 µM | 0.73 µM | 2.18 µM
2 | CCOc1cc2c(NCCCN(CCO)CCO)ncnc2c(OCC)c1OCC |  | > 100 µM |  | > 100 µM |  | > 100 µM |  | > 100 µM |  | > 100 µM |  | > 100 µM |  | > 100 µM |  | > 100 µM |  | > 100 µM |  | > 100 µM
3 | COc1ccc2c(Nc3ccc(NS(C)(=O)=O)cc3)c3ccccc3nc2c1 | 0.151 µM | 2.7 µM | 1.5 µM | 3.67 µM | 0.32 µM | 6.03 µM | 1.41 µM | 11.4 µM | 0.533 µM | 9.19 µM | 0.285 µM | 2.34 µM | 0.599 µM | 2.03 µM | 0.99 µM | 3.09 µM | 0.596 µM | 4.96 µM | 0.809 µM | 8.87 µM
4 | NNc1cccc(/C=C/c2ccccc2)cc1=O | 7.78 µM | > 100 µM | 33.5 µM | > 100 µM | 1.36 µM | 29.5 µM | 3.8 µM | > 100 µM | 8.33 µM | > 100 µM | 5.07 µM | > 100 µM | 12.4 µM | 44.7 µM | 7.35 µM | 62.6 µM | 50.6 µM | > 100 µM | 1.86 µM | 9.24 µM
5 | COc1cc2c3c(c1)c1cc(OC)c(OC)cc1c[n+]3CC2 | 76.7 µM | > 100 µM | 7.23 µM | 22.7 µM and 55.2 µM | 69.8 µM | > 100 µM | > 100 µM | > 100 µM | 5.69 µM | 19.3 µM and 69.9 µM | 35.5 µM | 50 µM and > 100 µM | 63.8 µM | > 100 µM | 17.7 µM | 50 µM and > 100 µM | > 100 µM | > 100 µM |  | > 100 µM
6 | COc1ccc(/C=C/c2nc(NCCCN(C)C)c3ccccc3n2)cc1 | 2.62 µM | 7.65 µM | 1.55 µM | 5.01 µM | 2.02 µM | 4.53 µM | 16.3 µM | 30.8 µM | 1.73 µM | 3.13 µM | 1.83 µM | 3.42 µM | 2.16 µM | 4.81 µM | 4.88 µM | 11.4 µM | 6.59 µM | 22 µM | 14.1 µM | 29.4 µM
7 | CCOC(=O)C(CO)c1nc2c([nH]c1=O)c(=O)n(C)c(=O)n2C (centres undefined) |  | > 100 µM |  | > 100 µM |  | > 100 µM |  | > 100 µM |  | > 100 µM |  | > 100 µM |  | > 100 µM |  | > 100 µM |  | > 100 µM |  | > 100 µM
8 | O=[N+]([O-])c1ccc(N/N=C/c2c(O)ccc3ccccc23)nc1 | 27.7 µM | > 100 µM | 39.8 µM | > 100 µM | 0.918 µM | > 100 µM | 0.655 µM | > 100 µM | 8.73 µM | > 100 µM | 1.26 µM | > 100 µM | 16.4 µM | > 100 µM | 0.517 µM | > 100 µM | 55.9 µM | > 100 µM | 1.25 µM | > 100 µM
9 | C[C@]1(CO)[C@H]2CC[C@@]34C=C[C@@](CO)(CC[C@H]3[C@]2(C)CC[C@H]1O)C4 |  | > 100 µM |  | > 100 µM |  | > 100 µM |  | > 100 µM |  | > 100 µM |  | > 100 µM |  | > 100 µM |  | > 100 µM |  | > 100 µM |  | > 100 µM
10 | CCOC(=O)C(Cc1c[nH]c2ccc(N(CCCl)CCCl)cc12)(NC(C)=O)C(=O)OCC | 1.8 µM and 1.04 µM | 25.1 µM and 63.9 µM | 16.3 µM and 12.2 µM | 39.3 µM and 50.2 µM | 1.33 µM and 1.47 µM | 5.21 µM and 19.9 µM | 14.6 µM and 16.1 µM | 39.9 µM and 53.4 µM | 22.1 µM and 14.9 µM | 83.5 µM and 36.3 µM | 7.09 µM and 4.88 µM | 24.6 µM and 35.3 µM | 12.3 µM | 116 µM | 23.4 µM and 14.4 µM | 65.7 µM and 35.1 µM | 22.2 µM and 17.6 µM | 60.5 µM and 62.7 µM | 20.7 µM and 10.5 µM | 53.8 µM and 46 µM
11 | CC(C)c1ccc(C(=O)Nc2sc3c(c2C#N)CCC(=O)C3)cc1 | 1.63 µM | > 100 µM | 0.306 µM | 3.13 µM | 0.189 µM | > 100 µM | 0.31 µM | 1.95 µM | 0.413 µM | 7.83 µM | 0.39 µM | > 33.4 µM | 0.592 µM | 26.4 µM | 0.396 µM | 1.61 µM | 0.613 µM | 5.47 µM | 0.252 µM | 0.982 µM
12 | C=C1C(=O)OC2CC1C(O)C/C(C)=C/CC/C(C)=C/C(O)CC2C (centres undefined) |  | 28.1 µM |  | 6.45 µM |  | 1.34 µM |  | 4.95 µM |  | 18.3 µM |  | 2.74 µM |  | 9.63 µM |  | 9.2 µM |  | 6.91 µM |  | 6.66 µM
